Results reported in patent US7265155B2 (NBS Pharmaceuticals, Inc., priority 1996, dated 2007).
Marks after values point to notes of the source that are not given here.

What was measured:
Frings mouse = test: Rotarod motor impairment (toxicity) in the Frings mouse; type: in vivo; settings: for Number Showing Toxicity of Four Mice Tested at 30 minutes / Number Showing Toxicity of Four Mice Tested at 120 minutes: Table 4; for Number Showing Toxicity of Eight Mice Tested at 30 minutes / Number Showing Toxicity of Eight Mice Tested at 120 minutes: Table 5
Protocol: (§1) The average seizure score can be calculated for each group of mice employed in the dose-response study. At each dose, mice are also tested on a rotarod for testing of motor impairment (toxicity). Testing for motor impairment on the rotarod involves placing a mouse for a three-minute trial period on a one-inch diameter rod rotating at six revolutions per minute. If the mouse falls off of the rotating rod three times within the three-minute time period, it is considered a toxic response.

[1] = tested on: Frings audiogenic seizure-susceptible mouse; test: Frings audiogenic seizure-susceptible mouse model of epilepsy; type: in vivo; settings: for anticonvulsant activity when administered orally: oral
Excerpt: One useful model is provided by the Frings audiogenic seizure-susceptible mouse, a model of reflex epilepsy. At the time of testing, individual mice are placed into a round Plexiglas chamber and exposed to a sound stimulus of 110 decibels, 11 kHz, for 20 seconds. Animals not displaying tonic hindlimb extensions were considered protected. In addition, the seizure score for each mouse can be recorded as: (1) running for less than 10 seconds; (2) running for greater than 10 seconds; (3) clonic activity of limbs and/or vibrissae; (4) forelimb extension/hindlimb flexion; and (5) hindlimb extension.
as §1

rat = test: Rotarod Test in the Rat; type: in vivo; settings: for Number of Rats Falling: ten rats per group
Protocol: This is a test of neurological deficits using the method described by Dunham et al., J. Am. Pharm. Assoc. 46: 208-09 (1957). Rats or mice are placed on a rod rotating at a speed of eight turns per minute. The number of animals which drop off the rod before three minutes is counted and the drop-off times are recorded (maximum: 180 seconds). Ten rats are studied per group and the test is performed blind. The test compound is administered i.p. 60 minutes prior to testing. Diazepam, a benzodiazepine, is administered at 8 mg/kg, i.p., as the reference substance. A control group administered the vehicle is also included in the study.

[2] = in vivo; cited from earlier work
[3] = reported in the literature; cited from earlier work
[4] = 4 mg/kg i.p. 60 minutes before test
[5] = 8 mg/kg i.p. 60 minutes before test

## CC(C)CC(=O)NCC(N)=O [N-(2-acetamido)isovaleramide]
Frings mouse; 30 mg/kg oral
  Number Showing Toxicity of Four Mice Tested at 30 minutes: 0
  Number Showing Toxicity of Four Mice Tested at 120 minutes: 0
Frings mouse; 100 mg/kg oral
  Number Showing Toxicity of Four Mice Tested at 30 minutes: 0
  Number Showing Toxicity of Four Mice Tested at 120 minutes: 0
Frings mouse; 300 mg/kg oral
  Number Showing Toxicity of Four Mice Tested at 30 minutes: 0
  Number Showing Toxicity of Four Mice Tested at 120 minutes: 0
Frings mouse; 1000 mg/kg oral
  Number Showing Toxicity of Four Mice Tested at 30 minutes: 1
  Number Showing Toxicity of Four Mice Tested at 120 minutes: 0
[1]; Table 4, 30 mg/kg oral
  Number Protected of Four Mice Tested at 30 minutes: 0
  Number Protected of Four Mice Tested at 120 minutes: 0
[1]; Table 4, 100 mg/kg oral
  Number Protected of Four Mice Tested at 30 minutes: 0
  Number Protected of Four Mice Tested at 120 minutes: 0
[1]; Table 4, 300 mg/kg oral
  Number Protected of Four Mice Tested at 30 minutes: 0
  Number Protected of Four Mice Tested at 120 minutes: 0
[1]; Table 4, 1000 mg/kg oral
  Number Protected of Four Mice Tested at 30 minutes: 3
  Number Protected of Four Mice Tested at 120 minutes: 4
[1]
  anticonvulsant activity when administered orally: displayed anticonvulsant activity when administered orally

## CN1C(=O)CN=C(c2ccccc2)c2cc(Cl)ccc21 [Diazepam, diazepam]
rat; [4]
  Drop-Off Time % change from control: −59%
  Drop-Off Time (sec) Mean ± S.E.M.: 55.8 ± 20.6^d sec
  Number of Rats Falling: 9
rat; [5]
  Drop-Off Time % change from control: −88%
  Drop-Off Time (sec) Mean ± S.E.M.: 16.3 ± 6.4^f sec
  Number of Rats Falling: 10+ ^e
rat; i.p. 60 minutes before test, isovaleramide 128, 256 and 512 mg/kg
  rotarod performance in the rat: dose-dependently decreased rotarod performance

## CC(C)C(C)C(N)=O (stereo not shown) [2-methylisovaleramide]
Frings mouse; 30 mg/kg oral
  Number Showing Toxicity of Eight Mice Tested at 30 minutes: 0
  Number Showing Toxicity of Eight Mice Tested at 120 minutes: 0
Frings mouse; 100 mg/kg oral
  Number Showing Toxicity of Eight Mice Tested at 30 minutes: 0
  Number Showing Toxicity of Eight Mice Tested at 120 minutes: 0
Frings mouse; 300 mg/kg oral
  Number Showing Toxicity of Eight Mice Tested at 30 minutes: 2^a
  Number Showing Toxicity of Eight Mice Tested at 120 minutes: 0
Frings mouse; Table 5 footnote, 300 mg/kg oral, 30 minutes
  signs of toxicity in the animals counted as toxic: ^ano definitive signs of toxicity such as sedation or ataxia, animals just fell off
[1]; Table 5, 30 mg/kg oral
  Number Protected of Four Mice Tested at 30 minutes: 0
  Number Protected of Four Mice Tested at 120 minutes: 0
[1]; Table 5, 100 mg/kg oral
  Number Protected of Four Mice Tested at 30 minutes: 1
  Number Protected of Four Mice Tested at 120 minutes: 0
[1]; Table 5, 300 mg/kg oral
  Number Protected of Four Mice Tested at 30 minutes: 4
  Number Protected of Four Mice Tested at 120 minutes: 1
[1]
  anticonvulsant activity when administered orally: displayed anticonvulsant activity when administered orally

## CCN(CC)C(=O)CC(C)C [N,N-Diethyl isovaleramide]
[2]
  CNS properties: CNS stimulant (convulsant) properties

## CC(C)CC(=O)O [Isovaleric acid, isovaleric acid]
[3]
  anticonvulsant activity: inactive as an anticonvulsant
